Earlier results, collected in patent US20030235623A1, “Aqueous disinfecting compositions with rapid bactericidal effect” (priority 2002, published 2003).

Test system: some bacteria

OO [Hydrogen peroxide]
concentration known to inhibit the growth of some bacteria: 25 mg/L
